Results from US20220281848A1, “PYRAZOLE-SUBSTITUTED PYRROLIDINONES AS HERBICIDES” (FMC Corporation, priority 2019, published 2022).

Assays:
plants = assay: Test D post-emergence, other plants of Tables D2 and D4; type: in vivo; conditions: for damage to plant (100=total damage to plant; 0=no damage to plant), ABUTH / damage to plant (100=total damage to plant; 0=no damage to plant), AMARE / damage to plant (100=total damage to plant; 0=no damage to plant), BIDPI / damage to plant (100=total damage to plant; 0=no damage to plant), BRAPL / damage to plant (100=total damage to plant; 0=no damage to plant), CYPES / damage to plant (100=total damage to plant; 0=no damage to plant), DIGSA / damage to plant (100=total damage to plant; 0=no damage to plant), ECHCG / damage to plant (100=total damage to plant; 0=no damage to plant), ELEIN / damage to plant (100=total damage to plant; 0=no damage to plant), EPHHL / damage to plant (100=total damage to plant; 0=no damage to plant), GLXMA / damage to plant (100=total damage to plant; 0=no damage to plant), IPOHE / damage to plant (100=total damage to plant; 0=no damage to plant), ORYSA / damage to plant (100=total damage to plant; 0=no damage to plant), PANMI / damage to plant (100=total damage to plant; 0=no damage to plant), SETFA / damage to plant (100=total damage to plant; 0=no damage to plant), SORVU: post-emergence
In short: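 Seeds treated with herbicide safener; sown in soil; glasshouse, 16 h light, 65% humidity. Sprayed day 1 (pre) or ~day 12 (post). Spray in 0.2% v/v adjuvant. Scored 0–100 damage: 20 DAA pre, 15 d post.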

wheat = assay: Test D post-emergence, wheat seed treated with a herbicide safener; type: in vivo; conditions: "Cereals" Postemergent
In short: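 Damage was rated visually from 0 (none) to 100 (total), at 20 DAA for pre-emergence and 15 d for post-emergence. Plants grew from safener-treated seed in a glasshouse at 24/18° C. or 20/16° C. day/night, 65% humidity, watered twice daily.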

[1] = "Cereals" Postemergent, Rates 130, evaluated after 15 d
[2] = "Cereals" Postemergent, Rates 250, evaluated after 15 d
[3] = "Cereals" Postemergent, Rates 500, evaluated after 15 d

CN1CC(c2cc(C(F)(F)F)n(C)n2)C(C(=O)Nc2ccc(F)nc2F)C1=O (racemic) [Compound 22]
ALOMY damage rating (100=total damage to plant; 0=no damage to plant) (plants; [1]): 0
ALOMY damage rating (100=total damage to plant; 0=no damage to plant) (plants; [2]): 0
ALOMY damage rating (100=total damage to plant; 0=no damage to plant) (plants; [3]): 10
AVEFA damage rating (100=total damage to plant; 0=no damage to plant) (plants; [1]): 0
AVEFA damage rating (100=total damage to plant; 0=no damage to plant) (plants; [2]): 0
AVEFA damage rating (100=total damage to plant; 0=no damage to plant) (plants; [3]): 10
BEAVA damage rating (100=total damage to plant; 0=no damage to plant) (plants; [1]): 0
BEAVA damage rating (100=total damage to plant; 0=no damage to plant) (plants; [2]): 0
BEAVA damage rating (100=total damage to plant; 0=no damage to plant) (plants; [3]): 10
BROTE damage rating (100=total damage to plant; 0=no damage to plant) (plants; [1]): 0
BROTE damage rating (100=total damage to plant; 0=no damage to plant) (plants; [2]): 0
BROTE damage rating (100=total damage to plant; 0=no damage to plant) (plants; [3]): 0
BRSNN damage rating (100=total damage to plant; 0=no damage to plant) (plants; [1]): 10
BRSNN damage rating (100=total damage to plant; 0=no damage to plant) (plants; [2]): 10
BRSNN damage rating (100=total damage to plant; 0=no damage to plant) (plants; [3]): 10
CHEAL damage rating (100=total damage to plant; 0=no damage to plant) (plants; [1]): 0
CHEAL damage rating (100=total damage to plant; 0=no damage to plant) (plants; [2]): 20
CHEAL damage rating (100=total damage to plant; 0=no damage to plant) (plants; [3]): 30
GALAP damage rating (100=total damage to plant; 0=no damage to plant) (plants; [1]): 0
GALAP damage rating (100=total damage to plant; 0=no damage to plant) (plants; [2]): 40
GALAP damage rating (100=total damage to plant; 0=no damage to plant) (plants; [3]): 10
HORVW damage rating (100=total damage to plant; 0=no damage to plant) (plants; [1]): 0
HORVW damage rating (100=total damage to plant; 0=no damage to plant) (plants; [2]): 10
HORVW damage rating (100=total damage to plant; 0=no damage to plant) (plants; [3]): 20
KCHSC damage rating (100=total damage to plant; 0=no damage to plant) (plants; [1]): 0
KCHSC damage rating (100=total damage to plant; 0=no damage to plant) (plants; [2]): 0
KCHSC damage rating (100=total damage to plant; 0=no damage to plant) (plants; [3]): 0
LOLPE damage rating (100=total damage to plant; 0=no damage to plant) (plants; [1]): 0
LOLPE damage rating (100=total damage to plant; 0=no damage to plant) (plants; [2]): 0
LOLPE damage rating (100=total damage to plant; 0=no damage to plant) (plants; [3]): 0
POAAN damage rating (100=total damage to plant; 0=no damage to plant) (plants; [1]): 0
POAAN damage rating (100=total damage to plant; 0=no damage to plant) (plants; [2]): 0
POAAN damage rating (100=total damage to plant; 0=no damage to plant) (plants; [3]): 0
POLCO damage rating (100=total damage to plant; 0=no damage to plant) (plants; [1]): 0
POLCO damage rating (100=total damage to plant; 0=no damage to plant) (plants; [2]): 0
POLCO damage rating (100=total damage to plant; 0=no damage to plant) (plants; [3]): 10
SINAR damage rating (100=total damage to plant; 0=no damage to plant) (plants; SINAR, "Cereals" Postemergent, Rates 500, evaluated after 15 d): 20
STEME damage rating (100=total damage to plant; 0=no damage to plant) (plants; [1]): 0
STEME damage rating (100=total damage to plant; 0=no damage to plant) (plants; [2]): 0
STEME damage rating (100=total damage to plant; 0=no damage to plant) (plants; [3]): 30
VERPE damage rating (100=total damage to plant; 0=no damage to plant) (plants; [1]): 0
VERPE damage rating (100=total damage to plant; 0=no damage to plant) (plants; [2]): 50
VERPE damage rating (100=total damage to plant; 0=no damage to plant) (plants; [3]): 60
damage to plant (100=total damage to plant; 0=no damage to plant), ABUTH (plants; rate 130, evaluated after 15 d): 0
damage to plant (100=total damage to plant; 0=no damage to plant), ABUTH (plants; rate 250, evaluated after 15 d): 10
damage to plant (100=total damage to plant; 0=no damage to plant), ABUTH (plants; rate 500, evaluated after 15 d): 30
damage to plant (100=total damage to plant; 0=no damage to plant), AMARE (plants; rate 130, evaluated after 15 d): 0
damage to plant (100=total damage to plant; 0=no damage to plant), AMARE (plants; rate 250, evaluated after 15 d): 0
damage to plant (100=total damage to plant; 0=no damage to plant), AMARE (plants; rate 500, evaluated after 15 d): 0
damage to plant (100=total damage to plant; 0=no damage to plant), BIDPI (plants; rate 130, evaluated after 15 d): 0
damage to plant (100=total damage to plant; 0=no damage to plant), BIDPI (plants; rate 250, evaluated after 15 d): 0
damage to plant (100=total damage to plant; 0=no damage to plant), BIDPI (plants; rate 500, evaluated after 15 d): 20
damage to plant (100=total damage to plant; 0=no damage to plant), BRAPL (plants; rate 130, evaluated after 15 d): 0
damage to plant (100=total damage to plant; 0=no damage to plant), BRAPL (plants; rate 250, evaluated after 15 d): 50
damage to plant (100=total damage to plant; 0=no damage to plant), BRAPL (plants; rate 500, evaluated after 15 d): 70
damage to plant (100=total damage to plant; 0=no damage to plant), CYPES (plants; rate 130, evaluated after 15 d): 0
damage to plant (100=total damage to plant; 0=no damage to plant), CYPES (plants; rate 250, evaluated after 15 d): 0
damage to plant (100=total damage to plant; 0=no damage to plant), CYPES (plants; rate 500, evaluated after 15 d): 10
damage to plant (100=total damage to plant; 0=no damage to plant), DIGSA (plants; rate 130, evaluated after 15 d): 40
damage to plant (100=total damage to plant; 0=no damage to plant), DIGSA (plants; rate 250, evaluated after 15 d): 60
damage to plant (100=total damage to plant; 0=no damage to plant), DIGSA (plants; rate 500, evaluated after 15 d): 60
damage to plant (100=total damage to plant; 0=no damage to plant), ECHCG (plants; rate 130, evaluated after 15 d): 0
damage to plant (100=total damage to plant; 0=no damage to plant), ECHCG (plants; rate 250, evaluated after 15 d): 40
damage to plant (100=total damage to plant; 0=no damage to plant), ECHCG (plants; rate 500, evaluated after 15 d): 50
damage to plant (100=total damage to plant; 0=no damage to plant), ELEIN (plants; rate 130, evaluated after 15 d): 10
damage to plant (100=total damage to plant; 0=no damage to plant), ELEIN (plants; rate 250, evaluated after 15 d): 10
damage to plant (100=total damage to plant; 0=no damage to plant), ELEIN (plants; rate 500, evaluated after 15 d): 40
damage to plant (100=total damage to plant; 0=no damage to plant), EPHHL (plants; rate 130, evaluated after 15 d): 0
damage to plant (100=total damage to plant; 0=no damage to plant), EPHHL (plants; rate 250, evaluated after 15 d): 20
damage to plant (100=total damage to plant; 0=no damage to plant), EPHHL (plants; rate 500, evaluated after 15 d): 30
damage to plant (100=total damage to plant; 0=no damage to plant), GLXMA (plants; rate 130, evaluated after 15 d): 0
damage to plant (100=total damage to plant; 0=no damage to plant), GLXMA (plants; rate 250, evaluated after 15 d): 10
damage to plant (100=total damage to plant; 0=no damage to plant), GLXMA (plants; rate 500, evaluated after 15 d): 40
damage to plant (100=total damage to plant; 0=no damage to plant), IPOHE (plants; rate 130, evaluated after 15 d): 10
damage to plant (100=total damage to plant; 0=no damage to plant), IPOHE (plants; rate 250, evaluated after 15 d): 30
damage to plant (100=total damage to plant; 0=no damage to plant), IPOHE (plants; rate 500, evaluated after 15 d): 50
damage to plant (100=total damage to plant; 0=no damage to plant), ORYSA (plants; rate 130, evaluated after 15 d): 0
damage to plant (100=total damage to plant; 0=no damage to plant), ORYSA (plants; rate 250, evaluated after 15 d): 0
damage to plant (100=total damage to plant; 0=no damage to plant), ORYSA (plants; rate 500, evaluated after 15 d): 0
damage to plant (100=total damage to plant; 0=no damage to plant), PANMI (plants; rate 130, evaluated after 15 d): 70
damage to plant (100=total damage to plant; 0=no damage to plant), PANMI (plants; rate 250, evaluated after 15 d): 20
damage to plant (100=total damage to plant; 0=no damage to plant), PANMI (plants; rate 500, evaluated after 15 d): 40
damage to plant (100=total damage to plant; 0=no damage to plant), SETFA (plants; rate 130, evaluated after 15 d): 0
damage to plant (100=total damage to plant; 0=no damage to plant), SETFA (plants; rate 250, evaluated after 15 d): 0
damage to plant (100=total damage to plant; 0=no damage to plant), SETFA (plants; rate 500, evaluated after 15 d): 20
damage to plant (100=total damage to plant; 0=no damage to plant), SORVU (plants; rate 130, evaluated after 15 d): 0
damage to plant (100=total damage to plant; 0=no damage to plant), SORVU (plants; rate 250, evaluated after 15 d): 0
damage to plant (100=total damage to plant; 0=no damage to plant), SORVU (plants; rate 500, evaluated after 15 d): 0
TRZAW damage rating (100=total damage to plant; 0=no damage to plant) (wheat; Rates 130, evaluated after 15 d): 0
TRZAW damage rating (100=total damage to plant; 0=no damage to plant) (wheat; Rates 250, evaluated after 15 d): 0
TRZAW damage rating (100=total damage to plant; 0=no damage to plant) (wheat; Rates 500, evaluated after 15 d): 10
